The values below come from US9079974B2, “GH-RH analogs with potent agonistic effects” (The University of Miami, priority 2011, dated 2015).

Entries after “also recorded” stand apart in the source; their conditions may differ. Square brackets hold non-standard residues; d marks the D form. Peptide text beside a SMILES is read from it. * marks the point of attachment. NMeY = CN[C@@H](Cc1ccc(O)cc1)C(=O)O; Agmatine = N=C(N)NCCCCN*; Nle = CCCC[C@H](N)C(=O)O; Orn = NCCC[C@H](N)C(=O)O; Abu = CC[C@H](N)C(=O)O

For assay [1], the system named is superfused rat pituitary cells. Briefly: GH release in superfused rat pituitary cell system. The following applies: 1 nM. It counts as cell-based. As for the experimental part:
Growth hormone releasing is assayed by using a superfused rat pituitary cell system as described in S. Vigh and A. V. Schally, Peptides 5, Suppl: 241-347, 1984, which is incorporated by reference herein. The new synthetic peptide analogs of hGH-RH P20356 and JI-38 as control are administered for 3 minutes (1 mL perfusate) at 1 nM concentration as shown below. Fractions of 1 ml are collected and the GH content in each is determined by ELISA. […] Effect of hGH-RH analogs (1 nM) on the GH release in superfused rat pituitary cell system
Pituitary cells from 2 male rates were used for each channel of the superfusion system. The cells were exposed to 3-min pulses of the new GHRH agonists or to JI-38 as standard every 30 min. Outflowing samples of each channel (1 ml) were collected every 3 min, and GH levels were determined by ELISA.

The next assay deals with GH release. The assay is described as follows: In vivo GH release after subcutaneous administration. The conditions noted are these: rat, s.c. Here is the method: Blood samples are taken from the jugular vein; 5, 15 and 30 minutes or only 15 and 30 minutes after the injection. The blood samples are centrifuged, plasma is removed and the GH level is measured by ELISA. The results are summarized in terms of potency in Table 9.

Consider `CCCC[C@H](NC(=O)[C@@H](NC(=O)[C@H](CC(=O)O)NC(=O)[C@H](CCC(N)=O)NC(=O)[C@H](CC(C)C)NC(=O)[C@H](CC(C)C)NC(=O)[C@H](CCCN)NC(=O)[C@H](CCCNC(=N)N)NC(=O)[C@H](C)NC(=O)[C@H](CO)NC(=O)[C@H](CC(C)C)NC(=O)[C@H](CCC(N)=O)NC(=O)[C@H](CC)NC(=O)[C@H](CC(C)C)NC(=O)[C@@H](NC(=O)[C@H](CCCN)NC(=O)[C@H](CCCNC(=N)N)NC(=O)[C@H](Cc1ccc(O)cc1)NC(=O)[C@H](CO)NC(=O)[C@H](CCC(N)=O)NC(=O)[C@@H](NC(=O)[C@H](Cc1ccccc1)NC(=O)[C@@H](NC(=O)[C@H](C)NC(=O)[C@H](CC(=O)O)NC(=O)[C@H](C)NC(=O)[C@H](Cc1ccc(O)cc1)NC)[C@@H](C)CC)[C@@H](C)O)C(C)C)[C@@H](C)CC)C(=O)N[C@@H](CC(=O)O)C(=O)NCCCCNC(=N)N` [Peptide P-20356, [N—Me-Tyr^1, Gln^8, Orn^12, Abu^15, Orn^21, Nle^27, Asp^28, Agm^29]hGH-RH(1-29)] (H-[NMeY]ADAIFTQSYR[Orn]VL[Abu]QLSAR[Orn]LLQDI[Nle]D-Agmatine), for which the “times more potent in vitro than JI-38 (GH release)” value in assay [1] is “about 3 times”. In addition, the “GH response after subcutaneous administration (in words)” value with GH release is recorded as “unusually high responses; also recorded: especially greater growth hormone levels than hGH-RH or JI-38”.
